Source: patent US11020383B2, “Methods for the treatment of cancer metastasis” (THE BOARD OF REGENTS OF THE UNIVERSITY OF TEXAS SYSTEM, priority 2017, dated 2021)
Entries after “also recorded” stand apart in the source; their conditions may differ.

Assays:
[1] = test system: M1-polarized macrophages from U937 cells; assay: Live cell counts of U937-derived M1-type model macrophages; type: cell-based, Human; conditions: 1 μM B1, n=4
Protocol: (§1) FIGS. 17A-B: Model M2-polarized macrophages are sensitive to the treatment with B1, in contrast to model M1-polarized macrophages. (FIG. 17A) Human cultured monocytic U937 cells were in vitro differentiated into M0 macrophages and then polarized into M1-type and M2-type macrophages, in the presence of vehicle (DMSO; control) or in the presence of 1 μM B1. The inventors used established protocol to differentiate U937 cells into macrophages (M0) with PMA (phorbol myristate acetate) and then polarize them into model M1 and M2-like types with interferon γ and LPS (lipopolysaccharide) or interleukins IL-4 and IL-13, respectively. The identity of M1-type and M2-type model macrophages was confirmed by cell staining with specific markers: the fluorescent antibodies recognizing surface proteins CD80 (for M1) and CD163 (for M2). (FIG. 17B) Counts of live cells cultured in the presence or absence of B1 are presented.
(§2) And fourth, the anti-M2 macrophages actions were confirmed in cell culture model.

[2] = test system: cultured breast cancer cells; conditions: breast cancer cells poorly responsive to bortezomib; cited from earlier work
[3] = test system: circulating tumor cells (CTCs); assay: Enumeration of circulating tumor cells in blood of xenografted mice; type: in vivo, nude mice
Protocol: (§3) CTCs and macrophages were isolated from the blood of two nude mice xenografted with human prostate cancer androgen resistant C4-2 cells and treated biweekly intratumorally with vehicle or B1 (30 mg/kg). In the vehicle-treated mouse, the tumor grew by size more than twice in the span of four weeks, whereas in the B1-treated mouse the tumor shrunk to about 50% of the size at the start of treatment (FIG. 2).
The anti-tumor actions of B1 in nude mice were confirmed by analysis of circulating tumor cells (CTCs). Enumeration of CTCs is used as a prognostic marker in cancer patients. The enumeration was extended to include not only canonical CTCs positive for epithelial marker EpCAM, but also EpCAM negative CTC-like cells positive for markers of epithelial-mesenchymal transition (EMT), indicative of increased aggressiveness of the cells (Chen et al., 2013).

[4] = test system: human C4-2 prostate cancer cells; assay: Liver micrometastasis by H&E histology in C4-2 tumor-bearing nude mice; type: in vivo
Source text: FIG. 10: H&E stained histological liver slices of control nude mice with a tumor induced using human C4-2 prostate cancer cells. Suspected micrometastasis sites are marked with black rings. A scale bar represents 500 μm. Micrometastasis was detected with an average frequency in the control group (untreated) 3.75 per mice, whereas in the B1 treated group it was 1.33 per mice.
(§4) Importantly, in the second, third and fourth mechanisms, the drug acts independently from the size of primary tumor. This was an unexpected effect.

M1 and M2 macrophages = assay: Enumeration of circulating M1 and M2 macrophages in blood of xenografted mice; type: in vivo, nude mice
Protocol: as §3
However, the numbers of circulating macrophages were also much lower in the blood of the B1-treated mouse. […] Consistently, the ratios of pro-tumor and anti-tumor macrophages in control and B1-treated mouse were approximated as 2.5 and 0.5, respectively.
Third, the drug boosts natural anti-cancer immune response. It promotes anti-metastatic profile of macrophages co-purifying with CTCs in the nude mice xenografted with human cultured androgen-independent prostate cancer cells C4-2, and treated with vehicle or with B1 (30 mg/kg). […] Data from one control and one treated mouse are presented in FIG. 5, with data from seven control and six treated mice presented below.

[5] = test system: human cultured androgen-independent prostate cancer cells C4-2; assay: Efficacy study in NOD-SCID mice xenografted with C4-2 cells; type: in vivo
Protocol: FIG. 18. […] The efficacy study was performed with mice xenografted with human cultured androgen-independent prostate cancer cells C4-2. The study involved eleven NOD-SCID mice. […] tumor-growing mice were treated intra-tumorally (IT) with 30 mg/kg B1 twice a week for up to three weeks. The control group (four mice) received a B1 vehicle (dimethylsulfoxide; DMSO). Tumor sizes were measured twice a week.

[6] = B1 maximum tolerated dose study; type: in vivo
Protocol: A study to determine the maximum tolerated dose was performed on 30 female CB. 17 SCID mice divided into six groups, five animals each. B1 was administered intravenously (i.v.) once a day (q.d.; three groups) or biweekly (three groups), at concentrations of 3 mg/kg, 10 mg/kg or 30 mg/kg, dissolved in 5% ethanol, 5% cremophor in water with 5% dextrose [D5W]. Mice were treated for 28 days, weighted daily on days 1-5 and then on a twice weekly schedule until day 28. They were observed frequently for adverse effects of treatment. […] Thus, B1 is non-toxic for mice even at the highest tested dose, 30 mg/kg.

proteasome = conditions: cited from earlier work
mTOR pathway = conditions: cited from earlier work
[7] = PD/PK study in mice xenografted with RPMI 8226 cells; type: in vivo, SCID mice; conditions: single 30 mg/kg i.v.
Protocol: The study involved 11 female SCID mice, with 3 control mice injected with vehicle (5% ethanol, 5% cremophor in water with 5% dextrose [D5W]) and […] injected with B1. The presence of B1 was detected by mass spectrometry in the tumors of B1-injected mice 8 and 12 hours post-injection, at concentrations up to 30.5 ng/g.

[8] = test system: M2-polarized macrophages from U937 cells; assay: Live cell counts of U937-derived M2-type model macrophages; type: cell-based, Human; conditions: 1 μM B1, T test, n=4
Protocol: as §1, §2

[9] = test system: human prostate cancer androgen resistant C4-2 cells; assay: Growth of primary tumor in nude mice xenografted with C4-2 cells; type: in vivo
Source text: In the vehicle-treated mouse, the tumor grew by size more than twice in the span of four weeks, whereas in the B1-treated mouse the tumor shrunk to about 50% of the size at the start of treatment (FIG. 2).
As shown herein, B1 exerts anti-metastatic actions with multiple mechanisms. First, the drug attenuates the growth of the primary tumor. Large tumors shed large number of metastasis seeding circulating tumor cells into circulation, thus increasing the chance of successful colonization of metastatic sites.
as §4

[10] = test system: circulating tumor cells (CTCs); assay: Biophysical profiling of CTCs by atomic force microscopy (PF QNM AFM); type: in vivo, nude mice; conditions: CTCs from blood of B1-treated vs control mice
Source text: It was postulated that the differences in profiles of circulating macrophages, which may destroy CTCs or help them in seeding metastases, are indicative of the metastatic potential of CTCs. To determine the metastatic potential of CTCs isolated from the blood of human prostate cancer patients and mouse cancer models, biophysical profiling by atomic force microscopy (AFM) was employed. This method was used to confirm the decreased aggressiveness of CTCs isolated from the B1-treated mouse.
In short, to determine the mechanical phenotype of cells Peak Force Quantitative Nanomechanical Atomic Force Microscopy (PF QNM AFM) imaging was employed. AFM is a type of stylus profilometry. In this particular AFM technique, a micro-sized probe (tip) interacts with a cell surface with strictly controlled force. At each point of contact, the tip position and the “force plot” presenting mechanical interactions of the tip with a cell surface are recorded. Images are created during raster scanning by the tip. The parameters extracted from the force plots are assembled into topographical (cell morphology) and mechanical maps. The mechanical parameters include elasticity (i.e., pressure needed to indent the cell in a reversible manner), deformation (i.e., the depth of maximal indentation enforced by the probe without breaking the cell membrane), and adhesion (i.e., force needed to lift the tip from the cell surface during the probe withdrawal).
A single AFM scan also provides a shape of the cell to distinguish between epithelial-like and mesenchymal-like phenotypes, and roughness of the cell surface that correlates with activity of apoptotic and EMT pathways (Chen et al, 2013; Osmulski et al., 2014). The integrated inverted fluorescent microscope allows collecting correlative immunocytochemical data about the scanned cells (FIG. 7).
The probe (tip on a cantilever) indents (vertical movement) and scans (lateral movement) the cell surface. After 10-15 min scan of a 1000-2000 μm^2 area, 5 maps of cell morphology, surface topography, elasticity, deformation, and adhesion (FIG. 6) are computed from the force plots (FIG. 7) created for each of the 4000-65,500 single tip-cell contact points with horizontal resolution of 100 nm, vertical resolution of 10 nm and forces as low as 100 pN. It is established that cancerous cell are much softer, deformable and more adhesive than their normal counterparts (Osmulski et al., 2014).
Second, the drug decreases aggressiveness of CTCs. The decrease is apparent by comparison of mechanical phenotypes of CTCs isolated from mice xenografted with human cultured androgen-independent prostate cancer cells C4-2, and treated with vehicle or with B1 (30 mg/kg). The data are presented in FIGS. 11-16 and in Table 1 (FIG. 11 is an extended version of FIG. 8).

[11] = B1 treated vs control mice (FIG. 16)
[12] = mice with xenografted prostate tumors
[13] = one B1-treated vs one vehicle mouse (FIG. 5)
[14] = seven control and six treated nude mice, B1 30 mg/kg

SMILES: COc1cc(CCCOC(=O)C2CCCCN2C(=O)C(=O)C2CCCCC2)cc(OC)c1OC (stereo not drawn) [Compound B1, 3-(3,4,5-trimethoxyphenyl)propyl 1-(2-cyclohexyl-2-oxoacetyl) piperidine-2-carboxylate]
- counts of live M1 model macrophages vs control [1]: did not affect viability; also recorded: did not differ
- cytotoxic effects with bortezomib [2]: strong cytotoxic effects
- number of highly invasive post-EMT CTCs [3, 11]: diminished
- formation of CTCs clusters ([3]; B1 treated vs control mice, heat map cluster analysis (FIG. 16)): diminished formation
- decrease of abundance of cancer cells in the blood stream vs vehicle [3, 12]: about five-fold
- numbers of CTCs in blood vs vehicle-treated mouse ([3]; one B1-treated vs one vehicle mouse, 30 mg/kg intratumorally, EpCAM or vimentin (FIG. 4)): significantly lower
- incidence of micrometastases in livers vs controls ([4]; B1-treated mice (FIG. 10)): decreased incidence
- average frequency of liver micrometastasis ([4]; B1 treated group (untreated control 3.75)): 1.33 per mice
- ratio of pro-tumor (M2) and anti-tumor (M1) macrophages (M1 and M2 macrophages; B1-treated mouse, blood (control mouse 2.5)): ~0.5
- formation of CTC-M2 (chaperoning) clusters (M1 and M2 macrophages; [11]): limited formation
- formation of M1-CTC (predatory) clusters (M1 and M2 macrophages; [11]): enhanced formation
- decrease of chaperone immune cells (M2 macrophages) vs vehicle (M1 and M2 macrophages; [12]): about four-fold
- decrease of the ratio of M2 macrophages to M1 macrophages vs vehicle-treated mouse (M1 and M2 macrophages; [12]): five-fold
- M2 pro-tumor macrophages, control mouse relative to B1-treated mouse (M1 and M2 macrophages; [13]): more than four-times
- number of M1 predator (anti-tumor) macrophages vs control mouse (M1 and M2 macrophages; [13]): very similar
- numbers of circulating macrophages vs vehicle-treated mouse (M1 and M2 macrophages; one B1-treated vs one vehicle mouse, 30 mg/kg intratumorally): much lower
- number of anti-cancer M1-type macrophages vs control (M1 and M2 macrophages; [14]): larger number
- number of pro-cancer M2-type macrophages vs control (M1 and M2 macrophages; [14]): generally lower number
- changes in the weight of animals ([5]; 30 mg/kg B1 intra-tumorally twice a week): did not result in detectable changes
- tumor growth vs control group ([5]; 30 mg/kg B1 intra-tumorally twice a week for up to three weeks (FIG. 18)): Significant inhibition; also recorded: significantly attenuated
- toxicity at the highest tested dose ([6]; 30 mg/kg i.v., mice): non-toxic
- adverse effects on behavior ([6]; i.v. q.d. or biweekly, 3, 10 or 30 mg/kg, 28 days): no adverse effects
- differences in body weight between the groups ([6]; i.v. q.d. or biweekly, 3, 10 or 30 mg/kg, 28 days (FIG. 9)): No statistically significant differences
- 26S assembling (proteasome): interferes with 26S assembling
- affinity of core particle toward bortezomib (proteasome): increases affinity
- concentration at which proteasome activities are influenced (proteasome): nanomolar concentrations
- effect on mTOR pathway (mTOR pathway): not affecting
- concentration of B1 in the tumors ([7]; 8 and 12 hours post-injection, mass spectrometry): up to 30.5 ng/g
- tissue localization ([7]; RPMI 8226 xenograft): localized to the xenografted tumor site
- counts of live M2-type model macrophages vs control [8]: significantly attenuating viability; also recorded: the difference was statistically significant
- tumor size relative to the size at the start of treatment ([9]; one nude mouse, C4-2 xenograft, B1 30 mg/kg intratumorally biweekly, four weeks (FIG. 2)): about 50%
- difference in tumor volume increase between control and B1-treated tumors ([9]; selected group of seven control and six B1-treated mice): no significant difference
- CTC adhesion vs vehicle ([10]; AFM (FIG. 8, FIG. 11)): less adhesive
- CTC deformation vs vehicle ([10]; AFM (FIG. 8, FIG. 11)): less deformable
- CTC stiffness (elasticity, Young modulus) vs vehicle ([10]; AFM (FIG. 8, FIG. 11)): harder; also recorded: stiffer
- aggressiveness of CTCs ([10]; mechanical phenotype): low aggressiveness; also recorded: significantly lowered aggressiveness
